According to patent US7476691B2, “Sulfamate benzothiophene derivatives as steroid sulfatase inhibitors” (Laboratoire Theramex, priority 2003, dated 2009):

Tests used:
estrone sulfatase = molecular target: T1, estrone sulfatase (Rattus norvegicus, UniProt P15589); assay: Estrone sulfatase activity in the uterus of treated rats; type: in vivo
T1 construct: uteri were thawed, weighed and homogenized; from tissue; host or cells: uterus of animals dosed orally (ex vivo homogenate supernatant)
T1 sequence (P15589 20-577): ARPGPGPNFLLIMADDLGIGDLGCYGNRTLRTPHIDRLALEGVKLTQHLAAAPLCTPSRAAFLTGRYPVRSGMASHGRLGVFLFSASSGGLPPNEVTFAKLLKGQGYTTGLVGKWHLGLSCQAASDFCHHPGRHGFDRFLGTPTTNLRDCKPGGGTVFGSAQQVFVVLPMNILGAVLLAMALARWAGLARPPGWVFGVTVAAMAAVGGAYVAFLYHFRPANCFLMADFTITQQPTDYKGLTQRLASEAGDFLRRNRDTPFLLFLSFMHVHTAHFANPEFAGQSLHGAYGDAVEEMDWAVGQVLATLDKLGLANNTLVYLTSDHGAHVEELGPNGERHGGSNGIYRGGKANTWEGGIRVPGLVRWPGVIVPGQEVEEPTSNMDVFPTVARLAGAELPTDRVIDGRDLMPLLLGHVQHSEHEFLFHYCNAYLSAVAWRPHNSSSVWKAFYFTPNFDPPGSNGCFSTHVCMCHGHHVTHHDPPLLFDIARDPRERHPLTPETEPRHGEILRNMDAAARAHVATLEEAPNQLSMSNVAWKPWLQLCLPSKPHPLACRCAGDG
Experimental: (§1) In this study, a last administration was performed 24 hours before the necropsy for E1S and E2 serum levels assays. The uteri were removed, freed of adjacent tissue, wet weighed and immediately deep frozen until the determination of sulfatase activity.
Estrone sulfatase activity was measured according to the method described by Purohit et al., with slight modifications. Briefly, uteri were thawed, weighed and homogenized. Aliquots of the supernatant were treated with dextran-coated charcoal and assayed for sulfatase. E1S activity was assessed after 30 min of incubation with 5 nM of ^3H-E1S and 20 μM of unlabelled E1S as substrate. Radioactivity was measured by LSC.
Estrone sulfatase activity was expressed as pmol/h/mg protein and reported as percentage of inhibition versus E1S.

[1] = system: ovariectomized Wistar female rats; assay: Antiuterotrophic/antisulfatase activity: inhibition of E1S stimulated uterus weight; type: in vivo, rat
Experimental: A short model, derived from Purohit's method, was developed for the evaluation in vivo of nonestrogenic steroid sulfatase inhibitors.
Wistar female rats were ovariectomized and left to rest for 4 weeks. Prior to treatment, the absence of cyclicity was checked by vaginal smears.
Animals were supplemented with estrone sulfate (E1S) at 50 μg/kg/day s.c., alone or combined with oral administration of potential sulfatase inhibitors, at 1 mg/kg/day for 4 days. The uteri were removed, freed of adjacent tissue and wet weighed.
The results are expressed as % of inhibition of the E1S induced stimulation.
The activity of Ex 55 on E1S stimulated uterus weight was evaluated in relation to the standard inhibitor 6,6,7 COUMATE from 0.03 mg/kg/day to 1 mg/kg/day p.o.
as §1

prepubescent female rats = assay: Residual estrogenic activity in vivo (uterotrophic assay); conditions: prepubescent female rats, oral, 1 mg/rat/day for 3 days
Experimental: These compounds were checked for residual estrogenic activity in vivo in the classical uterotrophic assay after 3-day administration by oral route in prepubescent female rats.
Prepubescent female rats were orally treated at 1 mg/rat/day for 3 days. On the day following the last treatment, uteri were removed and wet weight were recorded.
The results are expressed as % of stimulation of uterus weight in comparison with controls.

[2] = Serum estrogen levels (E1S and E2) in treated rats; type: in vivo, rat; conditions: 24 h after last administration
Experimental: as §1
E1S and E2 levels were determined according to the supplier's standard method (DSL, Webster, Tex., USA).

steroid sulfatase = molecular target: T2, steroid sulfatase (Homo sapiens, UniProt P08842); assay: Xenograft steroid sulfatase activity; type: in vivo, mouse; conditions: oral 0.1 mg/kg/day for 6 weeks
T2 construct: from tissue; host or cells: MCF-7 xenograft tumour removed from athymic nude mice
T2 sequence (P08842 22-583): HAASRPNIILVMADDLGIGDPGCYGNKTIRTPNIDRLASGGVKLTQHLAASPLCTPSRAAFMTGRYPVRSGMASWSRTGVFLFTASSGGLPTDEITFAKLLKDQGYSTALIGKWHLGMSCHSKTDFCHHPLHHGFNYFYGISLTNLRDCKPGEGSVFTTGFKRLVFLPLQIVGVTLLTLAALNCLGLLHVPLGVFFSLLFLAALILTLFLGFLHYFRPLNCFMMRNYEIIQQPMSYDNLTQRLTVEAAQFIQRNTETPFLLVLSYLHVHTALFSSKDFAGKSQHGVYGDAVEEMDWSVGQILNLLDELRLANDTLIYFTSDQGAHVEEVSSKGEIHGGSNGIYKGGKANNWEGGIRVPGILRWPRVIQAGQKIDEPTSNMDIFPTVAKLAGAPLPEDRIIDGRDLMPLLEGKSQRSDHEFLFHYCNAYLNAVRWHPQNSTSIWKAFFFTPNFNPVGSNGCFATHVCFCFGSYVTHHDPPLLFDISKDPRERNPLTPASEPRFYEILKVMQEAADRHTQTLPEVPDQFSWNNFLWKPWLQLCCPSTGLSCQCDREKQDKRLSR
Experimental: (§2) MCF-7 cells, derived from human breast adenocarcinoma, were injected subcutaneously in ovariectomized athymic nude mice supplemented with estrone sulfate (pellets 0.5 mg/90 day release). Xenograft volumes were determined once weekly. When tumor volumes reached a significant increase, 6,6,7 COUMATE and Ex 55 were orally administered at 0.1 mg/kg/day for 6 weeks.
(§3) Xenografts were measured, removed, weighed, and deep frozen until the determination of steroid sulfatase activity.

MCF-7 cells = assay: Hormono-dependent induced MCF-7 xenografts: volume and weight; type: in vivo, mice; conditions: oral 0.1 mg/kg/day for 6 weeks
Experimental: as §2, §3

[3] = MCF-7 xenografts, nude mice with E1S pellet

NS(=O)(=O)Oc1ccc2c3c(c(=O)oc2c1)CCCCC3 [6,6,7-COUMATE, reference compound]
Estrone sulfatase activity in the uterus, percentage of inhibition versus E1S (estrone sulfatase; 0.03 mg/kg/day p.o.): 36%
Estrone sulfatase activity in the uterus, percentage of inhibition versus E1S (estrone sulfatase; 0.1 mg/kg/day p.o.): 78%
Estrone sulfatase activity in the uterus, percentage of inhibition versus E1S (estrone sulfatase; 0.3 mg/kg/day p.o.): 96%
Estrone sulfatase activity in the uterus, percentage of inhibition versus E1S (estrone sulfatase; 1 mg/kg/day p.o.): 97%
Inhibition of E1S stimulated uterus weight ([1]; 0.03 mg/kg/day p.o.): 0%
Inhibition of E1S stimulated uterus weight ([1]; 0.1 mg/kg/day p.o.): 13%
Inhibition of E1S stimulated uterus weight ([1]; 0.3 mg/kg/day p.o.): 52%
Inhibition of E1S stimulated uterus weight ([1]; 1 mg/kg/day p.o.): 84%
% inhibition of the E1S induced stimulation (uterus weight) ([1]; ovariectomized rats, E1S 50 μg/kg/day s.c., compound oral 1 mg/kg/day for 4 days): 86%
% stimulation of uterus weight in comparison with controls (prepubescent female rats): 3%
E1S levels (serum) ([2]; 0.03 mg/kg/day p.o.): 24 ± 3.1 ng/mL
E2 levels (serum) ([2]; 0.03 mg/kg/day p.o.): 33 ± 5.8 pg/mL
E1S levels (serum) ([2]; 0.1 mg/kg/day p.o.): 26 ± 2.6 ng/mL
E2 levels (serum) ([2]; 0.1 mg/kg/day p.o.): 28 ± 2.5 pg/mL
E1S levels (serum) ([2]; 0.3 mg/kg/day p.o.): 59 ± 6.4 ng/mL
E2 levels (serum) ([2]; 0.3 mg/kg/day p.o.): 18 ± 1.1 pg/mL
E1S levels (serum) ([2]; 1 mg/kg/day p.o.): 80 ± 5.7 ng/mL
E2 levels (serum) ([2]; 1 mg/kg/day p.o.): 16 ± 1.5 pg/mL
Xenograft steroid sulfatase activity (steroid sulfatase; MCF-7 xenografts): 540 ± 54 pmol/h/mg protein
inhibition at 0.1 mg/kg/day (steroid sulfatase; read-out: inhibition of intratumoral steroid sulfatase activity): 67%
Xenograft volume after 6 week treatment (MCF-7 cells; [3]): 1854 ± 243 mm^3
Xenograft weight after 6 week treatment (MCF-7 cells; [3]): 1467 ± 191 mg
inhibition of the E1S induced stimulation (xenograft volume) (MCF-7 cells): did not inhibit
inhibition of xenograft weight (MCF-7 cells): did not inhibit
